Legend:
[1] = biological target: T1, ACAT2 (Homo sapiens (Human), UniProt O75908); assay: Inhibitory effect on ACAT2 activity, NBD22-fluorescent labeled sterol method in intact HepG2 cells; format: cell-based; settings: for IC50: NBD22-fluorescent labeled sterol, 6 hours incubation; for inhibition rate % on ACAT2 activity: relative inhibition rate with Pyripyropene A (0.2 μM) as the 100% inhibition control
Method: An inhibition curve was plotted based on that different concentrations of compounds would cause the fluorescence intensity to change by inhibiting the synthesis of the ester containing NBD22-fluorescent labeled sterol, thereby IC50 was calculated.
HepG2 cells were cultured in a 96-well plate at a starting density of 1.5×10^4 cells per well for 24 hours. After the cholesterol mixture was well mixed, the cells were cultured for another 24 hours. Then NBD22-fluorescent labeled sterol at a final concentration of 0.5 μg/ml, and compounds at a final concentration gradient of 0, 0.008, 0.04, 0.2, 1 and 5 μM were added. Three wells were set for each concentration. After incubating for 6 hours, the fluorescence intensity was measured using a fluorescence analyzer (E488, A535). The fluorescence intensity values were plotted against different concentrations of the compounds and IC50 was obtained.

[2] = biological target: T1, ACAT2; assay: Cholesterol oxidase method for ACAT activity in HepG2 cells, ACAT2; format: cell-based; settings: 10 μg/ml cholesterol, 9 hours
Method: HepG2 cells were used for testing the inhibitory effect of compounds at different concentrations on ACAT1 or ACAT2 activity, thereby obtaining IC50 to calculate SI(ACAT1-IC50/ACAT2-IC50).
HepG2 cells were cultured in a 6-well plate at a starting density of 4×10^5 cells per well for 24 hours, then the medium was replaced and 10 μg/ml of cholesterol and the compounds at different concentrations were added. The cells were cultured for another 9 hours and cholesterol amounts of the cells were measured with Cholesterol Assay kit.

T1 sequence (O75908 whole entry): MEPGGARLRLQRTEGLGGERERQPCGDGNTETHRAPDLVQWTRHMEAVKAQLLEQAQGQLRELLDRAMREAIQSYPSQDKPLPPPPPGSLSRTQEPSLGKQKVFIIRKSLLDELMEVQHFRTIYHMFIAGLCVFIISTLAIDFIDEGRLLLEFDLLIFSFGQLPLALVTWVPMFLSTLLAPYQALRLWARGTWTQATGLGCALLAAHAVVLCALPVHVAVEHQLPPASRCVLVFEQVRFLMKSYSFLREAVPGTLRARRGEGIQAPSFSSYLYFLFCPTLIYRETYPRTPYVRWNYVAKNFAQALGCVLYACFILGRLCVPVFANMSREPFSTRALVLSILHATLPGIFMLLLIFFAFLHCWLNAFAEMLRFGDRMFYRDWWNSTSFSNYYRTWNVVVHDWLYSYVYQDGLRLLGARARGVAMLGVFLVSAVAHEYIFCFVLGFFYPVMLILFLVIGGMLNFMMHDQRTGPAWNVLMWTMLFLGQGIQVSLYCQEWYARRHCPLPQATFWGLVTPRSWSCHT

Row | inhibition rate % on ACAT2 activity [1] [%] | SMILES | IC50 [1] [nM] | IC50 [2] [nM]
1 | 90 | CC(=O)OCC(COC(C)=O)[C@@H]1C[C@H](OC(C)=O)[C@@]2(C)Oc3cc(-c4cccnc4)oc(=O)c3[C@@H](O)[C@@H]2C1 [Compound 6] |  | 
2 | 90 | CC(=O)OCC(C)(OC(C)=O)[C@@H]1C[C@H](OC(C)=O)[C@@]2(C)Oc3cc(-c4cccnc4)oc(=O)c3C(=O)[C@@H]2C1 (stereo partly shown) [Compound 3] |  | 

Continued, compound first:

Row | SMILES | inhibition rate % on ACAT2 activity [1] [%] | IC50 [1] [nM] | IC50 [2] [nM]
3 | CC(=O)OC[C@](C)(O)[C@H]1C[C@@H](O)[C@]2(C)Oc3cc(-c4cccnc4)oc(=O)c3[C@H](O)[C@H]2C1 [Compound 29] |  | 81 | 
4 | CC(=O)OCC(COC(C)=O)[C@@H]1C[C@H](OC(C)=O)[C@@]2(C)Oc3cc(-c4cccnc4)oc(=O)c3C(=O)[C@@H]2C1 [Compound 2] | 104 |  | 
5 | CC(=O)OCC(C)(OC(C)=O)[C@@H]1C[C@H](OC(=O)c2ccc(C#N)cc2)[C@@]2(C)Oc3cc(-c4cccnc4)oc(=O)c3[C@@H](OC(C)=O)[C@@H]2C1 (stereo partly shown) [Compound 8] |  | 86 | 61
6 | CC(O)(COC(=O)c1ccc(C#N)cc1)[C@@H]1C[C@H](OC(=O)c2ccc(C#N)cc2)[C@@]2(C)Oc3cc(-c4cccnc4)oc(=O)c3C(=O)[C@@H]2C1 (stereo partly shown) [Compound 13] |  | 23 | 12
7 | CC(O)(COC(=O)c1ccc(C#N)cc1)[C@@H]1C[C@H](O)[C@@]2(C)Oc3cc(-c4cccnc4)oc(=O)c3C(=O)[C@@H]2C1 (stereo partly shown) [Compound 14] |  | 103 | 129
8 | CC(=O)OCC(C)(OC(C)=O)[C@H]1CC2[C@@H](O)c3c(cc(-c4cccnc4)oc3=O)O[C@]2(C)[C@@H](OC(C)=O)C1 (stereo in doubt) [Compound 16] |  | 245 | 
9 | CC(=O)OCC(C)(OC(C)=O)[C@@H]1C[C@H](OC(C)=O)[C@@]2(C)Oc3cc(-c4cccnc4)oc(=O)c3[C@@H](O)[C@@H]2C1 (stereo partly shown) [Compound 7] |  | 152 | 147
10 | CC(=O)OC[C@](C)(OC(C)=O)[C@@H]1C[C@@H]2[C@H](O)c3c(cc(-c4cccnc4)oc3=O)O[C@@]2(C)[C@H](OC(C)=O)C1 [Compound 26] |  | 433 | 
11 | CC(=O)OC[C@](C)(OC(C)=O)[C@@H]1C[C@@H]2[C@@H](O)c3c(cc(-c4cccnc4)oc3=O)O[C@@]2(C)[C@H](OC(C)=O)C1 [Compound 21] |  | 78 | 55
12 | CC(=O)OC[C@](C)(OC(C)=O)[C@H]1C[C@@H](OC(C)=O)[C@]2(C)Oc3cc(-c4cccnc4)oc(=O)c3[C@@H](O)[C@@H]2C1 [Compound 22] |  | 86 | 90
13 | CC(=O)OCC(C)(OC(C)=O)[C@@H]1C[C@H](OC(C)=O)[C@@]2(C)Oc3cc(-c4cccnc4)oc(=O)c3[C@@H](O)[C@@H]2C1 (stereo partly shown) [Compound 15] |  | 831 | 
